Here are results for two molecules from article PMC7815742 (Nature Communications, 2021).

The target of data set [1] is T1, (UniProt A0A3A0FWV3).
T1 construct: GenBank RIL07334.1, purified wild type
Kind of data set: in vitro [3H]-progesterone reduction assay with purified enzyme, HPLC radiodetection. Format: biochemical, Pseudomonadota bacterium.

Data set [2] concerns the molecule itself. In words: AUC; sedimentation velocity, 20 °C, 25 mM HEPES pH 7.5, 150 mM NaCl, 5% glycerol, 0.02% DDM, 5 mM DTT; masses calculated with SEDFIT and GUSSI.

T1 sequence (A0A3A0FWV3 1-253 limits assumed): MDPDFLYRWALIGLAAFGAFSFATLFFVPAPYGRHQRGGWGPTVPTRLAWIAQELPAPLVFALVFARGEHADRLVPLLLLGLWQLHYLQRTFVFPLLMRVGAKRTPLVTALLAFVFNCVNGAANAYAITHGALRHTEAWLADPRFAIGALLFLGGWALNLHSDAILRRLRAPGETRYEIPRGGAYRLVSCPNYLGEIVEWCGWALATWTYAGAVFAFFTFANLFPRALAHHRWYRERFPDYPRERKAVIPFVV

`C[C@]12C=CC(=O)N[C@@H]1CC[C@@H]1[C@@H]2CC[C@]2(C)[C@@H](C(=O)Nc3cc(C(F)(F)F)ccc3C(F)(F)F)CC[C@@H]12` [Duta, dutasteride] returned an IC50 in data set [1] of 1590 ± 190 nM.

B1: mycobacterial homolog of Insig protein (MvINS) (natural protein)
chain: MRLRISEAVVLFLLGAVAALIGDHSHVVTGTTVYHTDAVPFVWSSPFWFPILVGAATASLAELRLHLPAPRDGVTARQALGGVAAVVGTYVTTALVHAFPVVPVTALVCAAAAITWCVLGDGPGAACGVVIAVIGPAVEIALVQLGVFAYHPDSDGLFGVAPFLAPLYFAFGVVAALLGELAVARRPQLGPPVCDTVSRGPGAG
notes: mycobacterial homolog of Insig, MvINS; PDB 4XU4; theoretical protomer mass 23.6 kDa
Consider B1, for which the “stoichiometry N” value in data set [2] is 3.
